These results are taken from patent publication US20130345204A1, “SUBSTITUTED BICYCLIC CYCLOALKYL PYRAZOLE LACTAM ANALOGS AS ALLOSTERIC MODULATORS OF MGLUR5 RECEPTORS” (Vanderbilt University, priority 2012, published 2013).

Where two headings read alike, the source gives them in different places.

Data set [1] has as its target human mGluR5 (Homo sapiens, UniProt P41594). Put plainly: Cell-based functional Ca2+ mobilization assay (FDSS), potentiation of glutamate EC20 response. The text has this: Human mGluR5a cDNA in pCMV6-XL6 mammalian expression plasmid was purchased from OriGene Technologies, Inc. (catalogue number SC326357) and subcloned into pcDNA3.1(-). Human embryonic kidney (HEK)293A cells were then transfected with human mGluR5a pcDNA3.1(-) using LipofectAmine-2000 (Invitrogen) and monoclones were selected and tested for functional response using a Ca^2+ mobilization assay. Monoclones were named for the species (“H” for human) plus the location on the plate (e.g. “10H”). […] Cell-lines used were either the H10H or […] cell-lines expressing the human mGluR5 receptor. The following day, the growth medium was removed and the cells were washed with assay buffer containing 1× Hank's balanced salt solution (Invitrogen, Carlsbad, Calif.), 20 mM HEPES, 2.5 mM probenecid, pH 7.4 and left with 20 μL of this reagent. Following this step, the cells were loaded with calcium indicator dye, fluo-4 AM, to a final concentration of 2 μM and incubated for 40-45 min at 37° C. The dye solution was removed and replaced with assay buffer. Cell plates were held for 10-15 min at room temperature and were then loaded into the Functional Drug Screening System 6000 (FDSS 6000, Hamamatsu, Japan). […] Calcium fluorescence measures were recorded as fold over basal fluorescence; raw data was then normalized to the maximal response to glutamate. […] The concentration-response curves of compounds of the present invention, obtained in the presence of EC20 of mGluR5 receptor agonist glutamate to determine positive allosteric modulation, were generated using Microsoft Excel with IDBS XLfit add-ins. The raw data file containing all time points was used as the data source in the analysis template. This was saved by the FDSS as a tab-delimited text file. Data were normalized using a static ratio function (F/F0) for each measurement of the total 350 values per well divided by each well's initial value. […] This is sufficient time to capture the peak amplitude of the cellular Calcium response. […] Each of the three values collected at each concentration of test compound were weighted evenly. Individual values falling outside the 95% prediction limits of the curve fit were automatically excluded from the fit. […] These two methods are in good agreement for curves with a clear plateau at the high concentration range. […] For consistency purposes across the range of potencies observed, all EMax values reported in this application are calculated using the maximum average response at a single concentration. The % EMax value for each compound reported in this application is defined as the maximum % effect obtained in a concentration-response curve of that compound expressed as a percent of the response of a maximally effect concentration of glutamate. […] Table IV below lists specific compounds as well as experimentally determined mGluR5 activity determined in a cell-based. The mGluR5 activity was determined using the metabotropic glutamate receptor activity assays in human embryonic kidney cells as described herein, wherein the human embryonic kidney cells were transfected with human mGluR5. The data in Table III were obtained using the H10H cell-line which expresses recombinant human mGluR5. The compound number corresponds to the compound numbers used in Table I.
(A change in cytosolic calcium serves as a functional read-out for many receptors and channels.)

The mark [2] stands for this setting: H10H cell-line, maximum % effect as percent of response to maximally effective glutamate, glutamate EC20 present, read-out: Emax (%).
Setting [3] is: H10H cell-line, potentiation in presence of glutamate EC20.

Sequence of human mGluR5 (P41594 21-1180 isoform P41594-2 limits assumed): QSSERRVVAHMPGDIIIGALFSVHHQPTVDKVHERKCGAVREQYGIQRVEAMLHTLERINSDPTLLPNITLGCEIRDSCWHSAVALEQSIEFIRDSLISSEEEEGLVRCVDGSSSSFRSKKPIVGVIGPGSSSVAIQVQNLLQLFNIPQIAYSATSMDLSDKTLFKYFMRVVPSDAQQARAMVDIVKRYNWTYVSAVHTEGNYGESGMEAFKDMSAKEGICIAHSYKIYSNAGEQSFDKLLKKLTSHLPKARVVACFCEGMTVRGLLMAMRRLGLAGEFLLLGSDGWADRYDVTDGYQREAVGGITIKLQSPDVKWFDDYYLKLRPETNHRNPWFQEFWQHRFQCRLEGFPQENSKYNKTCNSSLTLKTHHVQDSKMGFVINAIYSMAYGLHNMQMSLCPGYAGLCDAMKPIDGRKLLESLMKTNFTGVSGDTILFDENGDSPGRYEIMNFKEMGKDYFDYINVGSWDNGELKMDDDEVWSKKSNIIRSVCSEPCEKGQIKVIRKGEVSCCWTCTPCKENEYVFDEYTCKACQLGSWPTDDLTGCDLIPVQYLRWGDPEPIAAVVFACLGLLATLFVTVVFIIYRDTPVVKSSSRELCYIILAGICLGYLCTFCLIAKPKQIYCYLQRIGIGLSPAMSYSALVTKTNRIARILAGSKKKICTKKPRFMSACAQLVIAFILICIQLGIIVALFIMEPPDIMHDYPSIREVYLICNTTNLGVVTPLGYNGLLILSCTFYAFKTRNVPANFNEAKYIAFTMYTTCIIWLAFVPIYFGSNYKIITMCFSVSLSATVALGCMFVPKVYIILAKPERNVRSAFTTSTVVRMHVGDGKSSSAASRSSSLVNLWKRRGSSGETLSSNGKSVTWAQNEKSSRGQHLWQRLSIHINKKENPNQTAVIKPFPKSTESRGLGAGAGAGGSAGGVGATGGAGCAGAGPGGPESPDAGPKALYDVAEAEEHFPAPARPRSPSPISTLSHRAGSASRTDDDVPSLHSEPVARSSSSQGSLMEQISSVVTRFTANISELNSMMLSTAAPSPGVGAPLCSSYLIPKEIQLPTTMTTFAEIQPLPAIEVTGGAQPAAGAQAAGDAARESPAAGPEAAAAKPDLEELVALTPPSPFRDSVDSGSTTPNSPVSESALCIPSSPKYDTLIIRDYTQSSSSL

By Emax is commonly meant the maximal effect, on the per cent scale that the assay sets. The EC50 is the concentration at which the effect is half-maximal. Turning to `O=C1c2cc(COc3ccccc3)nn2CCN1C1COC1` [Compound 8], in data set [1] (setting [2]), the maximal effect (Emax) is 30%. In data set [1] (setting [3]), the EC50 was greater than 10000 nM.

Regarding `O=C1c2cc(COc3ccccc3)nn2CCN1C1CCC1` [Compound 9], the Emax in data set [1] (setting [2]) was determined as 29%. Also, the concentration for a half-maximal effect (EC50) in data set [1] (setting [3]) is 324 nM.

In general, melting point refers to the temperature of the solid-liquid transition. `O=C1c2cc(COc3ccccc3)nn2CCCN1CC1CC1(F)F` (racemic) [Compound 25] yielded a melting point of 102.2 °C. Also, in data set [1] (setting [2]), the Emax turned out to be 58%. For the same compound, the concentration for a half-maximal effect (EC50) in data set [1] (setting [3]) was 389 nM.

`CC1CCn2nc(COc3ccccc3)cc2C(=O)N1CC1CC1` (stereo not drawn) [Compound 23] yielded a melting point of 68.6 °C. Further, the maximal response (Emax) in data set [1] (setting [2]) is 57%. Also, in data set [1] (setting [3]), the half-maximal effective concentration (EC50) is 398 nM.

Turning to `O=C1c2cc(COc3ccccc3)nn2CCN1CC1CCCCC1` [Compound 18], the Emax in data set [1] (setting [2]) is 79%. The EC50 in data set [1] (setting [3]) is 52.5 nM.

As for `O=C1c2cc(COc3ccccc3)nn2CCN1[C@H]1CCNC1` [Compound 34], the Emax in data set [1] (setting [2]) worked out at 24%. The concentration for a half-maximal effect (EC50) in data set [1] (setting [3]) was greater than 30200 nM.

Consider `CC1(C)CCC(N2CCn3nc(COc4ccccc4)cc3C2=O)CC1` [Compound 16], for which the Emax in data set [1] (setting [2]) came to 71%. Moreover, the concentration giving a half-maximal response (EC50) in data set [1] (setting [3]) was 97.7 nM.

For the compound `O=C1c2cc(COc3ccccc3)nn2CCN1C1CCCCC1` [Compound 13, 5-cyclohexyl-2-(phenoxymethyl)-6,7-dihydropyrazolo[1,5-a]pyrazin-4(5H)-one], the Emax in data set [1] (setting [2]) was 58%. In addition, the half-maximal effective concentration (EC50) in data set [1] (setting [3]) was 145 nM.

On to `O=C1c2cc(COc3ccccc3)nn2CCN1C1Cc2ccccc2C1` [Compound 17], for which the Emax in data set [1] (setting [2]) worked out at 77%. In data set [1] (setting [3]), the EC50 was 58.9 nM.

For the compound `O=C1c2cc(COc3cccc(F)c3)nn2CCN1C[C@H]1CC1(F)F` [Compound 14, (R)-5-((2,2-difluorocyclopropyl)methyl)-2-((3-fluorophenoxy)methyl)-6,7-dihydropyrazolo[1,5-a]pyrazin-4(5H)-one], the Emax in data set [1] (setting [2]) is 51%. Further, in data set [1] (setting [3]), the EC50 is 158 nM.

For `O=C1c2cc(COc3ccccc3)nn2CCN1C1CCCC1` [Compound 7], the Emax in data set [1] (setting [2]) was 48%. In addition, in data set [1] (setting [3]), the EC50 was 195 nM.

As a reminder, the pEC50 is −log10 of the EC50, conventionally taken in molar units. Consider `O=C1c2cc(COc3ccccc3)nn2CCN1CC1CC(F)(F)C1` [Compound 32], for which the “Emax (%)” value in data set [1] (H10H cell-line, maximum % effect as percent of response to maximally effective glutamate, glutamate EC20 present) was 73%. Besides, in data set [1] (setting [3]), the pEC50 is 6.19.

As for `CC1(C)CN(CC2CC2)C(=O)c2cc(COc3ccccc3)nn2C1` [Compound 24], the melting point stood at 96.5 °C. In data set [1] (setting [2]), the Emax was found to be 38%. In addition, the EC50 in data set [1] (setting [3]) is no less than 10000 nM.

Regarding `O=C1c2cc(COc3cccc(F)c3)nn2CCN1C[C@@H]1CC1(F)F` [Compound 21], the maximal effect (Emax) in data set [1] (setting [2]) stood at 65%. For the same compound, the EC50 in data set [1] (setting [3]) was 110 nM.

Compound `O=C1c2cc(COc3ccccc3)nn2CCCN1CC1CC1` [Compound 22, 5-(cyclopropylmethyl)-2-(phenoxymethyl)-5,6,7,8-tetrahydro-4H-pyrazolo[1,5-a][1,4]diazepin-4-one] had a melting point of 126.4 °C. Moreover, the maximal response (Emax) in data set [1] (setting [2]) was determined as 59%. The EC50 in data set [1] (setting [3]) is 380 nM.

On to `O=C1c2cc(COc3ccccc3)nn2CCN1C1CCNCC1` [Compound 37], for which the Emax in data set [1] (setting [2]) was found to be 22%. Also, the concentration giving a half-maximal response (EC50) in data set [1] (setting [3]) is greater than 30200 nM.

For the compound `CC1(CN2CCn3nc(COc4ccccc4)cc3C2=O)COC1` [Compound 31], the Emax in data set [1] (setting [2]) stood at 71%. Besides, the EC50 in data set [1] (setting [3]) is 1100 nM.

As for `O=C1c2cc(COc3ccccc3)nn2CCN1C1CCOC1` (racemic) [Compound 12], the Emax in data set [1] (setting [2]) is 25%. Also, in data set [1] (setting [3]), the EC50 was no less than 10000 nM.

In the case of `O=C1c2cc(COc3ccccc3)nn2CCN1C1CCCOC1` (racemic) [Compound 20], the Emax in data set [1] (setting [2]) is 52%. The concentration for a half-maximal effect (EC50) in data set [1] (setting [3]) is no less than 10000 nM.

The compound `CC1CN(CC2CC2)C(=O)c2cc(COc3ccccc3)nn2C1` (stereo not drawn) [Compound 28] yielded a melting point of 67.4 °C. Moreover, the Emax in data set [1] (setting [2]) turned out to be 30%. The EC50 in data set [1] (setting [3]) was greater than 30200 nM.

Regarding `O=C1c2cc(COc3ccccc3)nn2CCN1CC1CC(F)(F)C1` [Compound 10], the maximum response (Emax) in data set [1] (setting [2]) came out at 72%. Also, in data set [1] (setting [3]), the concentration for a half-maximal effect (EC50) was 646 nM.

Consider `O=C1c2cc(COc3ccccc3)nn2CCN1[C@H]1CCCNC1` [Compound 33], for which the maximum response (Emax) in data set [1] was 19%. In data set [1] (setting [3]), the EC50 is greater than 30200 nM.

As to `O=C1c2cc(COc3ccccc3)nn2CCN1C[C@@H]1CC1(F)F` [Compound 2, (S)-5-((2,2-difluorocyclopropyl)methyl)-2-(phenoxymethyl)-6,7-dihydropyrazolo[1,5-a]pyrazin-4(5H)-one], the maximal effect (Emax) in data set [1] (setting [2]) came to 65%. Besides, in data set [1] (setting [3]), the half-maximal effective concentration (EC50) is 380 nM.

Take `C[C@@H]1Cn2nc(COc3ccccc3)cc2C(=O)N1CC1CCC1` [Compound 6]: in data set [1] (setting [2]), the Emax was 76%. Moreover, in data set [1] (setting [3]), the concentration giving a half-maximal response (EC50) is 91.2 nM.

As to `O=C1c2cc(COc3ccccc3)nn2CCN1C1CCOCC1` [Compound 11], the Emax in data set [1] (setting [2]) was found to be 46%. Besides, in data set [1] (setting [3]), the EC50 is no less than 10000 nM.

`C[C@@H]1Cn2nc(COc3ccccc3)cc2C(=O)N1CC1CC1(F)F` (stereo partly drawn) [Compound 4]: the Emax in data set [1] (setting [2]) was 72%. Further, the EC50 in data set [1] (setting [3]) was 871 nM.
